# Measured values reported in patent US8999664B2, “Method of improving salmon meat color” (JX Nippon Oil & Energy Corporation, priority 2006, dated 2015).
# Test: Carotenoid content in fish flesh of silver salmon by HPLC
# Assay type: in vivo, Oncorhynchus kisutch
# Details: Fermented product division, silver salmon fish flesh, 6 months
# Procedure: In the examples, the quantification of the carotenoid colorant was performed using high performance liquid chromatography (HPLC). Two columns of Wakosil-II 5 SIL-100 φ4.6×250 mm (produced by Wako Pure Chemical Industries, Ltd.) were connected to each other. An n-hexane:tetrahydrofuran:methanol (40:20:1) mixed solution was used as a mobile phase. A constant room temperature and a flow rate of 1.0 ml/min were used. The detection was performed at a wavelength of 470 nm. The feed or fish flesh was milled, and then the colorant was extracted with a tetrahydrofuran:methanol (20:1) mixed solution. The colorant was appropriately diluted with the mobile phase and analyzed by HPLC. 300 silver salmons (Oncorhynchus kisutch) each weighing about 200 g were cultivated as a test division of being fed with the above-described fermented product, and another 300 silver salmons each weighing about 200 g were cultivated as a test division of being fed with the above-described synthetic product. The salmons were fed in satiation in a marine fish pen for 6 months. After the 6 months of cultivating, 10 fish of each test division were weighed. […] The fish were immediately killed by cutting medulla and frozen for preservation. After being thawed, the fish flesh was milled by a coffee mill, and a part thereof was put into a polyethylene bag to measure the color tone thereof by a spectrometer CM-508i (Minolta). […] From a part of the milled fish flesh, the carotenoid colorant was extracted, and analyzed in terms of the content of each carotenoid compound by HPLC.
row,Compound,Ratio to astaxanthin [%]
1,Asteroidenone,1.9
2,CC1=C(/C=C/C(C)=C/C=C/C(C)=C/C=C/C=C(C)/C=C/C=C(C)/C=C/C2=C(C)C(=O)[C@@H](O)CC2(C)C)C(C)(C)CCC1=O [Phoenicoxanthin],11.5

# Same assay, conditions: Fermented product division, silver salmon, 6 months, average of 10 fish
row,Compound,Content in fish flesh [mg/kg]
1,Asteroidenone,0.2
2,CC1=C(/C=C/C(C)=C/C=C/C(C)=C/C=C/C=C(C)/C=C/C=C(C)/C=C/C2=C(C)C(=O)[C@@H](O)CC2(C)C)C(C)(C)CCC1=O [Phoenicoxanthin],1.2

# Same assay, conditions: Synthetic product division, silver salmon, 6 months, average of 10 fish
row,Compound,Content in fish flesh
1,Asteroidenone,0.02 or less mg/kg
2,CC1=C(/C=C/C(C)=C/C=C/C(C)=C/C=C/C=C(C)/C=C/C=C(C)/C=C/C2=C(C)C(=O)[C@@H](O)CC2(C)C)C(C)(C)CCC1=O [Phoenicoxanthin],0.02 or less mg/kg

# Test: Carotenoid content in fish flesh of rainbow trout by HPLC
# Assay type: in vivo, Oncorhynchus mykiss
# Details: Fermented product division, rainbow trout fish flesh, 3 months
# Procedure: In the examples, the quantification of the carotenoid colorant was performed using high performance liquid chromatography (HPLC). Two columns of Wakosil-II 5 SIL-100 φ4.6×250 mm (produced by Wako Pure Chemical Industries, Ltd.) were connected to each other. An n-hexane:tetrahydrofuran:methanol (40:20:1) mixed solution was used as a mobile phase. A constant room temperature and a flow rate of 1.0 ml/min were used. The detection was performed at a wavelength of 470 nm. The feed or fish flesh was milled, and then the colorant was extracted with a tetrahydrofuran:methanol (20:1) mixed solution. The colorant was appropriately diluted with the mobile phase and analyzed by HPLC. 50 rainbow trouts (Oncorhynchus mykiss) each weighing about 100 g were cultivated in a water tank as a test division of being fed with the above-described fermented product, and another 50 rainbow trouts each weighing about 100 g were cultivated in a water tank as a test division of being fed with the above-described synthetic product. The trouts of each test division were fed in satiation in fresh water for 3 months. After the 3 months of cultivating, 12 fish of each test division were weighed. […] The fish were immediately killed by cutting medulla. […] After the measurement, the fish flesh was frozen for preservation. After being thawed, the fish flesh of the 12 fish of each test division was analyzed in terms of the content of each carotenoid compound.
row,Compound,Ratio to astaxanthin [%]
1,Asteroidenone,2.9
2,CC1=C(/C=C/C(C)=C/C=C/C(C)=C/C=C/C=C(C)/C=C/C=C(C)/C=C/C2=C(C)C(=O)[C@@H](O)CC2(C)C)C(C)(C)CCC1=O [Phoenicoxanthin],67.6

# Same assay, conditions: Fermented product division, rainbow trout, 3 months, average of 12 fish
row,Compound,Content in fish flesh [mg/kg]
1,Asteroidenone,0.1
2,CC1=C(/C=C/C(C)=C/C=C/C(C)=C/C=C/C=C(C)/C=C/C=C(C)/C=C/C2=C(C)C(=O)[C@@H](O)CC2(C)C)C(C)(C)CCC1=O [Phoenicoxanthin],2.3

# Same assay, conditions: Synthetic product division, rainbow trout, 3 months, average of 12 fish
row,Compound,Content in fish flesh
1,Asteroidenone,0.02 or less mg/kg
2,CC1=C(/C=C/C(C)=C/C=C/C(C)=C/C=C/C=C(C)/C=C/C=C(C)/C=C/C2=C(C)C(=O)[C@@H](O)CC2(C)C)C(C)(C)CCC1=O [Phoenicoxanthin],0.02 or less mg/kg

# Test: Carotenoid content in fish flesh of king salmon by HPLC
# Assay type: in vivo, Oncorhynchus tshawytscha
# Details: Fermented product division, king salmon fish flesh, 3 months
# Procedure: In the examples, the quantification of the carotenoid colorant was performed using high performance liquid chromatography (HPLC). Two columns of Wakosil-II 5 SIL-100 φ4.6×250 mm (produced by Wako Pure Chemical Industries, Ltd.) were connected to each other. An n-hexane:tetrahydrofuran:methanol (40:20:1) mixed solution was used as a mobile phase. A constant room temperature and a flow rate of 1.0 ml/min were used. The detection was performed at a wavelength of 470 nm. The feed or fish flesh was milled, and then the colorant was extracted with a tetrahydrofuran:methanol (20:1) mixed solution. The colorant was appropriately diluted with the mobile phase and analyzed by HPLC. 100 king salmons (Oncorhynchus tshawytscha) each weighing about 200 g were cultivated as a test division of being fed with the above-described fermented product, and another 100 king salmons each weighing about 200 g were cultivated as a test division of being fed with the above-described synthetic product. The salmons were fed in satiation in a marine fish pen for 3 months. After the 3 months of cultivating, 15 fish of each test division were sampled and weighed. […] The fish were immediately killed by cutting medulla. […] After the measurement, the fish flesh was frozen for preservation for 1 month. After being thawed, the fish flesh of the fish of each test division was analyzed in terms of the content of each carotenoid compound.
row,Compound,Ratio to astaxanthin [%]
1,Asteroidenone,2.2
2,CC1=C(/C=C/C(C)=C/C=C/C(C)=C/C=C/C=C(C)/C=C/C=C(C)/C=C/C2=C(C)C(=O)[C@@H](O)CC2(C)C)C(C)(C)CCC1=O [Phoenicoxanthin],45.7

# Same assay, conditions: Fermented product division, king salmon, 3 months, flesh frozen 1 month, average of 15 fish
row,Compound,Content in fish flesh [mg/kg]
1,Asteroidenone,0.1
2,CC1=C(/C=C/C(C)=C/C=C/C(C)=C/C=C/C=C(C)/C=C/C=C(C)/C=C/C2=C(C)C(=O)[C@@H](O)CC2(C)C)C(C)(C)CCC1=O [Phoenicoxanthin],2.1

# Same assay, conditions: Synthetic product division, king salmon, 3 months, flesh frozen 1 month, average of 15 fish
row,Compound,Content in fish flesh
1,Asteroidenone,0.02 or less mg/kg
2,CC1=C(/C=C/C(C)=C/C=C/C(C)=C/C=C/C=C(C)/C=C/C=C(C)/C=C/C2=C(C)C(=O)[C@@H](O)CC2(C)C)C(C)(C)CCC1=O [Phoenicoxanthin],0.02 or less mg/kg

# Test: Carotenoid content in fish flesh of Atlantic salmon by HPLC
# Assay type: in vivo, Salmo salar
# Details: Fermented product division, Atlantic salmon fish flesh, 12 months
# Procedure: In the examples, the quantification of the carotenoid colorant was performed using high performance liquid chromatography (HPLC). Two columns of Wakosil-II 5 SIL-100 φ4.6×250 mm (produced by Wako Pure Chemical Industries, Ltd.) were connected to each other. An n-hexane:tetrahydrofuran:methanol (40:20:1) mixed solution was used as a mobile phase. A constant room temperature and a flow rate of 1.0 ml/min were used. The detection was performed at a wavelength of 470 nm. The feed or fish flesh was milled, and then the colorant was extracted with a tetrahydrofuran:methanol (20:1) mixed solution. The colorant was appropriately diluted with the mobile phase and analyzed by HPLC. 400 Atlantic salmons (Salmo salar) each weighing about 300 g were cultivated as a test division of being fed with the above-described fermented product, and another 400 Atlantic salmons each weighing about 300 g were cultivated as a test division of being fed with the above-described synthetic product. The salmons were fed in satiation in a marine fish pen for 12 months. After the 12 months of cultivating, 20 fish of each test division were landed and weighed. […] The fish were immediately killed by cutting medulla, and the fish flesh was measured in terms of the color tone by a spectrometer. […] After the measurement, the fish flesh was frozen for preservation for 1 month. After being thawed, the fish flesh of the 20 fish of each test division was analyzed in terms of the content of each carotenoid compound.
row,Compound,Ratio to astaxanthin [%]
1,Asteroidenone,2.4
2,CC1=C(/C=C/C(C)=C/C=C/C(C)=C/C=C/C=C(C)/C=C/C=C(C)/C=C/C2=C(C)C(=O)[C@@H](O)CC2(C)C)C(C)(C)CCC1=O [Phoenicoxanthin],41.5

# Same assay, conditions: Fermented product division, Atlantic salmon, 12 months, flesh frozen 1 month, average of 20 fish
row,Compound,Content in fish flesh [mg/kg]
1,Asteroidenone,0.1
2,CC1=C(/C=C/C(C)=C/C=C/C(C)=C/C=C/C=C(C)/C=C/C=C(C)/C=C/C2=C(C)C(=O)[C@@H](O)CC2(C)C)C(C)(C)CCC1=O [Phoenicoxanthin],1.7

# Same assay, conditions: Synthetic product division, Atlantic salmon, 12 months, flesh frozen 1 month, average of 20 fish
row,Compound,Content in fish flesh
1,Asteroidenone,0.02 or less mg/kg
2,CC1=C(/C=C/C(C)=C/C=C/C(C)=C/C=C/C=C(C)/C=C/C=C(C)/C=C/C2=C(C)C(=O)[C@@H](O)CC2(C)C)C(C)(C)CCC1=O [Phoenicoxanthin],0.02 or less mg/kg
